Results as given in patent US12686699B2, “Crystalline forms of squalamine” (priority 2020, dated 2026).
Entries after “also recorded” stand apart in the source; their conditions may differ. Read-outs that look alike come from different tables or passages of the source.

What was measured:
Type in all cases: physicochemical
[1] = Physical stability test of solid forms
Description: Solid samples of Forms A1, B1 and C were incubated at three different conditions to test their physical stability: 80° C., closed vial, 24 hours; 60° C./29% RH, open vial, 48 hours; and 40° C./75% RH, open vial, 48 hours. The solids recovered after the stability studies were analyzed by HR-XRPD, TGMS and DSC.

[2] = Variable Humidity XRPD (VH-XRPD); settings: 30° C., RH profile 40→87→0→60% (Form A1), 40→85→0→60% (Form C)
Description: The powder data were collected on D8 Advance diffractometer using Cu Kα1 radiation (1.54056 Å) with germanium monochromator at 30° C. using the SYCOS H-HOT hot humid chamber produced by Ansyco GmbH. The data were collected in the Bragg-Brentano geometry (locked coupled) from 8 to 35° 2θ on the flat sample holder (without rotation) on solid state LynxEye detector with 0.018° per step with 1 sec/step scan speed. After reaching demanded humidity the sample was relaxed for 5 minutes before measurement. The sample was optionally measured with 2 seconds per step and in the last measurement at RH 0% the relaxation time was elongated to 30 min.
Variable Humidity XRPD (VH-XRPD) measurements were performed on Forms A1 and C to investigate the in-situ phase changes induced by exposure to variable RH levels. Diffractograms of Form A1 were collected at 30° C. with a RH profile of 40→87→0→60% (FIG. 2). Initially, the pattern of Form A1 was distinguished at 40% RH. By increasing the RH level up to 87%, no changes in the XRPD pattern were detected. Furthermore, no changes were observed by lowering the RH from 87% down to 20%.

[3] = Solubility in biorelevant media (shake-flask)
Description: The experiments were performed in triplicate. Approximately 30 mg of API were weighed in the 8 mL glass vials and an aliquot of media was added (see Table 14 for details). […] Upon completion of the equilibration time, the solids were separated from the liquid phases by centrifugation. The mother liquors were filtered using […] PTFE filters and injected at the HPLC to determine the API concentration in solution. The pH was recorded after 3 hours (1 hour for FaSSGF). The recovered ambient-dried solids were analyzed by HT-XRPD.

[4] = Dynamic Vapor Sorption (DVS) measurement; settings: for hygroscopic behavior: 40 to 95% RH
[5] = Intrinsic dissolution rate determination in FaSSGF; settings: for IDR: FaSSGF pH 1.6, 37° C., interval 3-30 min (Form A1), 10-45 min (Form C); for API concentration in solution: FaSSGF, 37° C.
Description: The intrinsic dissolution rate of Forms A1 and C was determined in FaSSGF. […] The pressure applied was approximately 40 bar for 2 minutes. The two tablets were placed in 30 mL vials and afterwards the FaSSGF solution pre-warmed at 37° C. […] After FaSSGF addition, stirring was started. The medium (20 mL) was added to vessels containing tablets of Forms A1 and C. The tablets were kept at 37° C. under continuous stirring. […] In the plot shown in FIG. 14, the % concentration of the API in solution is plotted against the time. The dissolution rate (Table 16) was calculated in the interval between 3 and 30 minutes for the experiment started with Form A1, and in the range 10-45 minutes for the experiment started with Form C.

[6] = Exposure to accelerated aging conditions (AAC); settings: 40° C./75% RH for 2 days
From the text: The polymorphic behavior of squalamine phosphate (ENT-01) and the physico-chemical properties of two hydrated phases were investigated. A squalamine tetrahydrate, designated Form A1, was identified. The squalamine polymorphism assessment and hydrate screen allowed identification of several squalamine crystalline phases. Among these phases, four squalamine hydrates (Forms B1, B2, C, D) and three mixed squalamine hydrates/solvates (Forms A2, E, F) were identified. All phases converted to squalamine Form A1 upon exposure to accelerated aging conditions (ACC) (2 days at 40° C./75% RH).
In the vacuum-dried solids, a novel pattern very similar to Form A1 but with shifted peaks was identified. This phase was designated Form A2 (see Table 2) and characterized by HT-XRPD. […] Form A2 was identified in several vacuum-dried solids recovered from the hydrate screen experiments.

[7] = after 40° C./75% RH, open vial, 48 h (TGMS)
[8] = after 60° C./29% RH, open vial, 48 h (TGMS)
[9] = after 80° C., closed vial, 24 h (TGMS)
[10] = FaSSGF (pH 1.6), 37° C., 1 hour
[11] = FaSSIF (pH 6.5), 37° C., 3 hours
[12] = desorption, between 5 and 0% RH
[13] = desorption, between 25 and 5% RH
[14] = first sorption cycle, between 45 and 95% RH
[15] = last sorption cycle, between 25 and 45% RH

Row | SMILES | Solid Phase Composition ([1]; 40° C./75% RH, open vial, 48 h) | Solid Phase Composition ([1]; 60° C./29% RH, open vial, 48 h) | Solid Phase Composition ([1]; 80° C., closed vial, 24 h) | Mass loss [1, 7] | Mass loss [1, 8] | Mass loss [1, 9] | physical stability under variable RH levels [2] | SOLUBILITY [3, 10] | SOLUBILITY [3, 11] | hygroscopic behavior [4] | change in mass [4, 12] | change in mass [4, 13] | change in mass (water vapor uptake) [4, 14] | change in mass ([4]; last sorption cycle, 0-25% RH) | change in mass (water vapor uptake) [4, 15] | IDR [5] | API concentration in solution ([5]; after 45 minutes) | API concentration in solution ([5]; after 60 minutes) | further results
1 | CC(C)[C@@H](CC[C@@H](C)[C@H]1CC[C@H]2[C@@H]3[C@H](O)C[C@H]4C[C@@H](NCCCNCCCCN)CC[C@]4(C)[C@H]3CC[C@]12C)OS(=O)(=O)O.O=P(O)(O)O [Form A1, squalamine phosphate] | physically stable | physically stable | physically stable | 9.2% | 8.5% | 9.1% | stable in the range 40→87→20% RH; also recorded: started to release water at RH levels below 20% | ~ 9 mg/mL | practically insoluble | slightly hygroscopic | 5.3% | 1.7% | 2.1% | 7% | 0.6% | 0.049 mg/min/cm^2 | ~20% | above 30% | SOLUBILITY ([3]; 37 °C, pH 1.6, fassgf or other biorelevant, thermodynamic from solid, FaSSGF (pH 1.6), 1 hour, read-out: SOLUBILITY): 9 mg/mL; SOLUBILITY ([3]; 37 °C, pH 5.1, fessif, thermodynamic from solid, FeSSIF (initial medium pH 5.1), 3 hours, read-out: SOLUBILITY): ~1 mg/mL; SOLUBILITY ([3]; 37 °C, pH 6.5, fassif, thermodynamic from solid, FaSSIF (pH 6.5), 3 hours, read-out: SOLUBILITY): < 0.1 mg/mL; SOLUBILITY ([3]; FaSSGF (pH 1.6), 37° C., 1 hour, listed as A1): 8.9 mg/mL; SOLUBILITY ([3]; FeSSIF (initial medium pH 5.1), 37° C., 3 hours, listed as Al): 0.8 mg/mL; change in mass (water absorbed) ([4]; between 35 to 65% RH): 0.7%; change in mass ([4]; desorption, 95-55% RH): 0.9%; change in mass ([4]; desorption, between 45 and 25% RH): 0.6%; change in mass ([4]; desorption, between 55 and 45% RH): 1%
2 | CC(C)[C@@H](CC[C@@H](C)[C@H]1CC[C@H]2[C@@H]3[C@H](O)C[C@H]4C[C@@H](NCCCNCCCCN)CC[C@]4(C)[C@H]3CC[C@]12C)OS(=O)(=O)O.O=P(O)(O)O [Form B1, squalamine phosphate] | converted to Form A1 | converted to Form A1; also recorded: converting to squalamine Form A1 | physically stable | 8.9% | 9.0% | 1.8% |  |  |  |  |  |  |  |  |  |  |  |  | 
3 | CC(C)[C@@H](CC[C@@H](C)[C@H]1CC[C@H]2[C@@H]3[C@H](O)C[C@H]4C[C@@H](NCCCNCCCCN)CC[C@]4(C)[C@H]3CC[C@]12C)OS(=O)(=O)O.O=P(O)(O)O [Form C, squalamine phosphate] | physically stable | converted to Form A1 | converted to Form A1 | 12.6% | 8.7% | 8.8% | physically stable in the range 40→85→40% RH | 16.9 mg/mL | practically insoluble | slightly hygroscopic | 6% | 7.3% | 3.1% | 8.1% | 1.4% | 0.014 mg/min/cm^2 | below 10% | above 20% | SOLUBILITY ([3]; FaSSIF (pH 6.5), 37° C., 3 hours, listed as C): <0.1 mg/mL; SOLUBILITY ([3]; FeSSIF (initial medium pH 5.1), 37° C., 3 hours): ~1 mg/mL; SOLUBILITY ([3]; FeSSIF (initial medium pH 5.1), 37° C., 3 hours, listed as C): 0.9 mg/mL
4 | CC(C)[C@@H](CC[C@@H](C)[C@H]1CCC2C3C(CC[C@@]21C)[C@@]1(C)CC[C@H](NCCCNCCCCN)C[C@@H]1C[C@H]3O)OS(=O)(=O)O.O=P(O)(O)O (stereo partly shown) [Form D, squalamine phosphate] |  |  |  |  |  |  |  |  |  |  |  |  |  |  |  |  |  |  | physical stability upon exposure to AAC [6]: physically unstable
